Source: patent publication US20260053794A1, “SOMATOSTATIN RECEPTOR 2 AGONISTS AND USES THEREOF” (Exelixis, Inc., priority 2022, published 2026)

These compounds were tested against T1, Somatostatin Receptor 2 (SSTR2) (Homo sapiens, UniProt P30874) (assay: Biochemical Assay for Activation of Somatostatin Receptor 2 (SSTR2), Cisbio HTRF cAMP assay). Conditions: average pEC50; HTRF cAMP assay in stably-transfected cell line expressing SSTR2; cells incubated with compounds for 1-2h.
T1 construct: expressed in transfected cells
T1 sequence (P30874 whole entry, species assumed): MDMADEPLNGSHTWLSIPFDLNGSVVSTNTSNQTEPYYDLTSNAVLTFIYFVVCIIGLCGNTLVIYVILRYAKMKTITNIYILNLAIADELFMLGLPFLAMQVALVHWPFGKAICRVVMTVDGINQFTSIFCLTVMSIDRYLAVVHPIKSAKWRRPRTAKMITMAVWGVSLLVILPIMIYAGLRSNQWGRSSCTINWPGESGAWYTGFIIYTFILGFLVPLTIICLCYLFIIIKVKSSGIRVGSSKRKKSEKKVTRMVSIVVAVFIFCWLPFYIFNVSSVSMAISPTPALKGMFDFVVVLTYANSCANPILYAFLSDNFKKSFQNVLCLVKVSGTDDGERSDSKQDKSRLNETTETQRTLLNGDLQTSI
Assay type: cell-based
Method: Biochemical Assay for Activation of Somatostatin Receptor 2 (SSTR2)
Agonistic activation of SSTRs leads to an […] production of intracellular cAMP levels. Cisbio's homogeneous time-resolved fluorescence (HTRF) cAMP assay was used to measure cAMP concentration in an high-throughput format. Increase in intracellular cAMP concentrations was measuring using a stably-transfected cell line expressing SSTR2. Test compounds were dissolved in DMSO. Cells were incubated with compounds for 1-2h, and subsequently competitive binding of cAMP produced due to the activation of SSTR2 by the test compounds was measured using the Cisbio cAMP Gs dynamic assay system (Perkin Elmer, Bedford, MA).
The average pEC50 was determined for the test compounds.
An EC50 of 15.8 nM was found for `Cc1cc(F)cc(-c2cnc3ccc4cc3c2N2CCC(CC2)NCC(CO)CCOc2c(C#N)cccc2-4)c1` (single isomer, unassigned) [Compound 90] in this work. An EC50 of 6.31 nM was found for `Cc1cc(F)cc(-c2cnc3ccc4cc3c2N2CCC(CC2)NC[C@H](CO)CCOc2c(C#N)cccc2-4)c1` (single isomer, unassigned) [Compound 91] in this work. An EC50 of 0.794 nM was found for `Cc1cc(F)cc(-c2cnc3ccc4cc3c2N2CCC(CC2)NCC[C@@H](N=[N+]=[N-])COc2c(C#N)cccc2-4)c1` (single isomer, unassigned) [Compound 96] in this work. An EC50 of 2.51 nM was found for `Cc1cc(F)cc(-c2cnc3ccc4cc3c2N2CCC(CC2)NCC[C@H](N=[N+]=[N-])COc2c(C#N)cccc2-4)c1` (single isomer, unassigned) [Compound 97] in this work. An EC50 of 316 nM was found for `Cc1cc(F)cc(-c2cnc3ccc4cc3c2N2CCC(CC2)NCC[C@@H](N)COc2c(C#N)cccc2-4)c1` (single isomer, unassigned) [Compound 98] in this work. An EC50 of 7.94 nM was found for `Cc1cc(F)cc(-c2cnc3ccc4cc3c2N2CCC(CC2)NCC[C@H](N)COc2c(C#N)cccc2-4)c1` (single isomer, unassigned) [Compound 99] in this work. An EC50 of 2510 nM was found for `Cc1cc(F)cc(-c2cnc3ccc4cc3c2N2CCC(CC2)NC[C@@H](O)CCOc2c(C#N)cccc2-4)c1` (single isomer, unassigned) [Compound 100] in this work. An EC50 of 1580 nM was found for `Cc1cc(F)cc(-c2cnc3ccc4cc3c2N2CCC(CC2)NC[C@H](O)CCOc2c(C#N)cccc2-4)c1` (single isomer, unassigned) [Compound 101] in this work. An EC50 of 398 nM was found for `Cc1cc(F)cc(-c2cnc3ccc4cc3c2N2CCC(CC2)NCC[C@@H](O)COc2c(C#N)cccc2-4)c1` (single isomer, unassigned) [Compound 102] in this work. An EC50 of 3980 nM was found for `Cc1cc(F)cc(-c2cnc3ccc4cc3c2N2CCC(CC2)NCC[C@H](O)COc2c(C#N)cccc2-4)c1` (single isomer, unassigned) [Compound 103] in this work. An EC50 of 0.316 nM was found for `Cc1cc(F)cc(-c2cnc3ccc(-c4cc(F)cc(C(N)=O)c4)cc3c2O[C@H]2CC[C@H](N)C2)c1` [Compound 1, 3-(4-(((1S,3S)-3-aminocyclopentyl)oxy)-3-(3-fluoro-5-methylphenyl)quinolin-6-yl)-5-fluorobenzamide] in this work. An EC50 of 1 nM was found for `Cc1cc(F)cc(-c2cnc3ccc(-c4cc(F)cc(C(N)=O)c4)cc3c2O[C@@H]2CC[C@H](N)C2)c1` [Compound 2] in this work. An EC50 of 7.94 nM was found for `Cc1cc(F)cc(-c2cnc3ccc(-c4cc(F)cc(C(N)=O)c4)cc3c2O[C@H]2CC[C@@H](N)C2)c1` [Compound 3] in this work. An EC50 of 0.398 nM was found for `Cc1cc(F)cc(-c2cnc3ccc(-c4cc(F)cc(C(N)=O)c4)cc3c2O[C@@H]2CC[C@@H](N)C2)c1` [Compound 4] in this work. An EC50 of 3.16 nM was found for `COc1cc(F)cc(-c2cnc3ccc(-c4cc(F)cc(C(N)=O)c4)cc3c2O[C@@H]2CC[C@H](N)C2)c1` [Compound 5] in this work. An EC50 of 63.1 nM was found for `COc1cc(F)cc(-c2cnc3ccc(-c4ccc5[nH]c(=O)[nH]c5c4)cc3c2O[C@@H]2CC[C@H](N)C2)c1` [Compound 6] in this work. An EC50 of 20 nM was found for `COc1cc(F)cc(-c2cnc3ccc(-c4cccc(C#N)c4O)cc3c2O[C@@H]2CC[C@H](N)C2)c1` [Compound 7] in this work. An EC50 of 6.31 nM was found for `Cc1cc(F)cc(-c2cnc3ccc(-c4ccc5[nH]c(=O)[nH]c5c4)cc3c2O[C@@H]2CC[C@H](N)C2)c1` [Compound 8] in this work. An EC50 of 3.16 nM was found for `Cc1cc(F)cc(-c2cnc3ccc(-c4cccc(C#N)c4O)cc3c2O[C@@H]2CC[C@H](N)C2)c1` [Compound 9] in this work. An EC50 of 10 nM was found for `NC(=O)c1cc(F)cc(-c2ccc3ncc(-c4cc(F)cc(F)c4)c(O[C@@H]4CC[C@H](N)C4)c3c2)c1` [Compound 10] in this work. An EC50 of 398 nM was found for `N[C@H]1CC[C@@H](Oc2c(-c3cc(F)cc(F)c3)cnc3ccc(-c4ccc5[nH]c(=O)[nH]c5c4)cc23)C1` [Compound 11] in this work. An EC50 of 15.8 nM was found for `N[C@@H]1CC[C@H](Oc2c(-c3cc(F)cc(F)c3)cnc3ccc(-c4cc(F)cc(F)c4)cc23)C1` [Compound 12, (1R,3S)-3-((3,6-bis(3,5-difluorophenyl)quinolin-4-yl)oxy) cyclopentanamine] in this work. An EC50 of 100 nM was found for `N[C@H]1CC[C@@H](Oc2c(-c3cc(F)cc(F)c3)cnc3ccc(-c4cc(F)cc(F)c4)cc23)C1` [Compound 13] in this work. An EC50 of 12.6 nM was found for `N[C@@H]1CC[C@@H](Oc2c(-c3cc(F)cc(F)c3)cnc3ccc(-c4cc(F)cc(F)c4)cc23)C1` [Compound 14] in this work. An EC50 of 12.6 nM was found for `N[C@H]1CC[C@H](Oc2c(-c3cc(F)cc(F)c3)cnc3ccc(-c4cc(F)cc(F)c4)cc23)C1` [Compound 15] in this work. An EC50 of 200 nM was found for `N#Cc1cccc(-c2ccc3ncc(-c4cc(F)cc(F)c4)c(O[C@H]4CC[C@@H](N)C4)c3c2)c1O` [Compound 16] in this work. An EC50 of 12.6 nM was found for `NC1CC(Oc2c(-c3cc(F)cc(F)c3)cnc3ccc(-c4cc(F)cc(F)c4)cc23)C1` (centres unmarked) [Compound 17] in this work. An EC50 of 12.6 nM was found for `Cc1cc(F)cc(-c2cnc3ccc(-c4cc(F)cc(C(N)=O)c4)cc3c2O[C@H]2C[C@@H](N)C2)c1` [Compound 18] in this work. An EC50 of 1 nM was found for `Cc1cc(F)cc(-c2cnc3ccc(-c4cc(F)cc(C(N)=O)c4)cc3c2O[C@H]2C[C@H](N)C2)c1` [Compound 19] in this work. An EC50 of 3980 nM was found for `NCC1CCCCC1Oc1c(-c2cc(F)cc(F)c2)cnc2ccc(-c3cc(F)cc(F)c3)cc12` (centres unmarked) [Compound 20] in this work. An EC50 of 20 nM was found for `Cc1cc(F)cc(-c2cnc3ccc(-c4cc(F)cc(C(N)=O)c4)cc3c2OC2CCCC(CN)C2)c1` (centres unmarked) [Compound 21] in this work. An EC50 greater than 10000 nM was found for `N#Cc1cccc(-c2ccc3ncc(-c4cc(F)cc(F)c4)c(OC4CCCC(N)C4)c3c2)c1O` (centres unmarked) [Compound 22] in this work. An EC50 greater than 10000 nM was found for `CO[C@@H]1CN(c2c(-c3cc(F)cc(F)c3)cnc3c2nc(-c2cccc(C#N)c2O)n3C)CC[C@H]1N` [Compound 23, 3-(7-((3R,4R)-4-amino-3-methoxypiperidin-1-yl)-6-(3,5-difluorophenyl)-3-methyl-3H-imidazo[4,5-b]pyridin-2-yl)-2-hydroxybenzonitrile] in this work. An EC50 greater than 5010 nM was found for `CO[C@@H]1CN(c2c(-c3cc(F)cc(F)c3)cnc3c2nc(-c2cc(F)cc(C(N)=O)c2)n3C)CC[C@H]1N` [Compound 24] in this work. An EC50 greater than 10000 nM was found for `CO[C@@H]1CN(c2c(-c3cc(F)cc(F)c3)cnc3c2nc(-c2ccc4[nH]c(=O)[nH]c4c2)n3C)CC[C@H]1N` [Compound 25] in this work. An EC50 greater than 10000 nM was found for `CO[C@@H]1CN(c2c(-c3cc(C)cc(F)c3)cnc3c2nc(-c2ccc4[nH]c(=O)[nH]c4c2)n3C)CC[C@H]1N` [Compound 27] in this work. An EC50 greater than 10000 nM was found for `COc1cc(F)cc(-c2cnc3c(nc(-c4cccc(C#N)c4O)n3C)c2N2CC[C@@H](N)[C@H](OC)C2)c1` [Compound 29] in this work. An EC50 of 1000 nM was found for `COc1cc(F)cc(-c2cnc3c(nc(-c4cc(F)cc(C(N)=O)c4)n3C)c2N2CC[C@@H](N)[C@H](OC)C2)c1` [Compound 30] in this work. An EC50 greater than 10000 nM was found for `COc1cc(F)cc(-c2cnc3c(nc(-c4ccc5[nH]c(=O)[nH]c5c4)n3C)c2N2CC[C@@H](N)[C@H](OC)C2)c1` [Compound 31] in this work. An EC50 greater than 10000 nM was found for `COc1cc(F)cc(-c2cnc3c(nc(-c4ccc5[nH]c(=O)[nH]c5c4)n3C)c2N2CCC(N)CC2)c1` [Compound 32] in this work. An EC50 of 1580 nM was found for `COc1cc(F)cc(-c2cnc3c(nc(-c4cc(F)cc(C(N)=O)c4)n3C)c2N2CCC(N)CC2)c1` [Compound 33] in this work. An EC50 of 501 nM was found for `COc1cc(F)cc(-c2cnc3c(nc(-c4cccc(C#N)c4O)n3C)c2N2CCC(N)CC2)c1` [Compound 34] in this work. An EC50 of 158 nM was found for `Cc1cc(F)cc(-c2cnc3c(nc(-c4cc(F)cc(C(N)=O)c4)n3C)c2N2CCC(N)CC2)c1` [Compound 35, 3-(7-(4-aminopiperidin-1-yl)-6-(3-fluoro-5-methylphenyl)-3-methyl-3H-imidazo[4,5-b]pyridin-2-yl)-5-fluorobenzamide] in this work. An EC50 greater than 10000 nM was found for `Cc1cc(F)cc(-c2cnc3c(nc(-c4ccc5[nH]c(=O)[nH]c5c4)n3C)c2N2CCC(N)CC2)c1` [Compound 36] in this work. An EC50 of 316 nM was found for `Cc1cc(F)cc(-c2cnc3c(nc(-c4cccc(C#N)c4O)n3C)c2N2CCC(N)CC2)c1` [Compound 37] in this work. An EC50 of 2000 nM was found for `Cn1c(-c2cc(F)cc(C(N)=O)c2)nc2c(N3CCC(N)CC3)c(-c3cc(F)cc(F)c3)cnc21` [Compound 38] in this work. An EC50 greater than 10000 nM was found for `Cn1c(-c2ccc3[nH]c(=O)[nH]c3c2)nc2c(N3CCC(N)CC3)c(-c3cc(F)cc(F)c3)cnc21` [Compound 39] in this work. An EC50 greater than 10000 nM was found for `Cn1c(-c2cccc(Br)c2O)nc2c(N3CCC(NC(=O)OC(C)(C)C)CC3)c(-c3cc(F)cc(F)c3)cnc21` [Compound 40] in this work. An EC50 of 158 nM was found for `Cn1c(-c2cccc(Br)c2O)nc2c(N3CCC(N)CC3)c(-c3cc(F)cc(F)c3)cnc21` [Compound 41] in this work. An EC50 greater than 10000 nM was found for `Cn1c(-c2cccc(C#N)c2O)nc2c(N3CCC(NC(=O)OC(C)(C)C)CC3)c(-c3cc(F)cc(F)c3)cnc21` [Compound 42] in this work. An EC50 of 6310 nM was found for `Cn1c(-c2cccc(C#N)c2O)nc2c(N3CCC(N)CC3)c(-c3cc(F)cc(F)c3)cnc21` [Compound 43] in this work. An EC50 greater than 10000 nM was found for `Cn1c(-c2cccc(Br)c2O)nc2ncc(-c3cc(F)cc(F)c3)c(N3CCC(NC(=O)OC(C)(C)C)CC3)c21` [Compound 44] in this work. An EC50 of 398 nM was found for `Cn1c(-c2cccc(Br)c2O)nc2ncc(-c3cc(F)cc(F)c3)c(N3CCC(N)CC3)c21` [Compound 45] in this work. An EC50 greater than 10000 nM was found for `CO[C@@H]1CN(c2c(-c3cc(F)cc(F)c3)cnc3[nH]c(-c4ccc5[nH]c(=O)[nH]c5c4)nc23)CC[C@H]1N` [Compound 46, 5-(7-((3R,4R)-4-amino-3-methoxypiperidin-1-yl)-6-(3,5-difluorophenyl)-3H-imidazo[4,5-b]pyridin-2-yl)-1,3-dihydro-2H-benzo[d]imidazol-2-one] in this work. An EC50 of 1000 nM was found for `CO[C@@H]1CN(c2c(-c3cc(F)cc(F)c3)cnc3[nH]c(-c4cc(F)cc(C(N)=O)c4)nc23)CC[C@H]1N` [Compound 47] in this work. An EC50 of 501 nM was found for `CO[C@@H]1CN(c2c(-c3cc(F)cc(F)c3)cnc3[nH]c(-c4cccc(C#N)c4O)nc23)CC[C@H]1N` [Compound 48] in this work.
